Laboratory results published in US6087383A (Bristol-Myers Squibb Company, priority 1998, dated 2000).
Where a name gives a salt, the structure may show the parent alone. Read-outs that look alike come from different tables or passages of the source.

How the values were obtained:
[1] = Equilibration of excess salt in water: suspension pH and identity of undissolved solid phase; type: physicochemical; conditions: for pH of the suspension after equilibration / identity of undissolved solid phase after equilibration in water: excess salt in water; for pH of the suspension after equilibration: at least 24 hours (24±3° C. for methane sulfonate and hydrochloride); for identity of undissolved solid phase after equilibration in water: thermal and/or elemental analysis
Description: (§1) In general, conversion of salts to the unionized form or vice versa can be explained on the basis of pH-solubility theory. […] At pH<pHmax the equilibrium solid converts to the corresponding salt form. The term "equilibrium solid phase" refers to the undissolved or excess solid in a suspension of the compound in water after sufficient equilibration time. When a salt of a weak base is equilibrated in water in an amount exceeding its solubility limit (i.e., a suspension of the salt in water), the resulting pH of the suspension may fall on either side of the pHmax depending on the strength of the acid among other factors. When the resulting pH is greater than the pHmax, the suspended solid converts to the free base.
The undissolved solids from these suspensions were isolated, air-dried, and characterized.

[2] = 40° C./75% RH; for changes in thermal behavior: as little as two weeks
Description: The term physical stability indicates the ability of the salt form to retain its crystal structure (including solvents of crystallization, if any) under storage/stress conditions. Significant changes in the physical nature of the salt form as indicated by thermal methods such as differential scanning calorimetry are undesirable. […] The solid line represents the unstressed material. The dotted line represents the material stressed at 40° C./75% RH for 9 months. […] The solid line represents the unstressed material. The dotted line represents the material stressed at 40° C./75% RH for two weeks. […] The solid line represents the unstressed material. […] The solid line represents the unstressed material. The dotted line represents the material stressed at 40° C./75% RH for two weeks.

[3] = pH 1.8
in vivo = conditions: dog, po
[4] = Crystal form characterisation (hygroscopicity); type: physicochemical; conditions: crystals obtained from isopropanol
Description: They are now referred to as Type-II crystals. The Type-I crystals appear to be an anhydrous/desolvated crystalline material while the Type-II crystals are a hydrated, hygroscopic crystalline form.

[5] = Aqueous solubility at 24±3° C.; conditions: water
Description: For development of pharmaceutical formulations, particularly oral dosage forms, the active ingredient must have sufficient oral bioavailability.

[6] = Description: as §1
[7] = dog, in vivo
[8] = Oral bioavailability in animals; type: in vivo; conditions: crystalline free base form as a suspension in water or oil

Row | SMILES | pH of the suspension after equilibration [1] | identity of undissolved solid phase after equilibration in water [1] | changes in thermal behavior [2] | solubility in water [3] | also measured
1 | COC(=O)N[C@H](C(=O)N[C@@H](Cc1ccccc1)[C@@H](O)CN(Cc1ccc(-c2ccccn2)cc1)NC(=O)[C@@H](NC(=O)OC)C(C)(C)C)C(C)(C)C [methanesulfonate] | 2.1±0.1 | identified as the free base | significant changes in their thermal behavior |  | 
2 | COC(=O)N[C@H](C(=O)N[C@@H](Cc1ccccc1)[C@@H](O)CN(Cc1ccc(-c2ccccn2)cc1)NC(=O)[C@@H](NC(=O)OC)C(C)(C)C)C(C)(C)C [bisulfate salt] | 1.9±0.2 | hydrated form of 2:1 salt of the free base form and sulfuric acid |  | 4 to 5 mg/mL | solid state transformation when suspended in water ([1]; suspension in water): prevents the conversion to the free base; changes in thermal behavior (differential scanning calorimetry) ([2]; 9 months, vs unstressed sample (2-8° C. closed container)): no significant changes in the thermal behavior; bioavailability (in vivo): ~20%
3 | COC(=O)N[C@H](C(=O)N[C@@H](Cc1ccccc1)[C@@H](O)CN(Cc1ccc(-c2ccccn2)cc1)NC(=O)[C@@H](NC(=O)OC)C(C)(C)C)C(C)(C)C [hydrochloride] | 2.1±0.1 | identified as the free base | significant changes in their thermal behavior |  | 
4 | COC(=O)N[C@H](C(=O)N[C@@H](Cc1ccccc1)[C@@H](O)CN(Cc1ccc(-c2ccccn2)cc1)NC(=O)[C@@H](NC(=O)OC)C(C)(C)C)C(C)(C)C [Type-II crystals] |  |  |  |  | hygroscopicity [4]: hygroscopic
5 | COC(=O)N[C@H](C(=O)N[C@@H](Cc1ccccc1)[C@@H](O)CN(Cc1ccc(-c2ccccn2)cc1)NC(=O)[C@@H](NC(=O)OC)C(C)(C)C)C(C)(C)C [benzenesulfonate] |  |  |  |  | solubility [5]: 1 to 3 mg/mL
6 | COC(=O)N[C@H](C(=O)N[C@@H](Cc1ccccc1)[C@@H](O)CN(Cc1ccc(-c2ccccn2)cc1)NC(=O)[C@@H](NC(=O)OC)C(C)(C)C)C(C)(C)C [Compound I, [3S-(3R*, 8'R*, 9'R*, 12R*)]-3,12-bis(1,1-dimethylethyl)-8-hydroxy-4,11-dioxo-9-(phenylmethyl)-6-[[4-(2-pyridinyl)phenylmethyl]-2,5,6,10,13-pentaazatetradecanedioic] acid, dimethyl ester] |  |  |  | less than 1 mg/mL | pHmax (pH at which the compound exhibits the highest solubility) [6]: approximately 1.2; oral bioavailability [7]: minimal oral bioavailability; oral bioavailability [8]: poor oral bioavailability
